Measured values from publication PMC8621570, “Mechanistic Studies of Antibiotic Adjuvants Reducing Kidney’s Bacterial Loads upon Systemic Monotherapy” (Pharmaceutics, 2021).
In brackets after ≈: the same amount, converted by molar mass. Like-named read-outs stand apart in the source and are kept apart here. Where a SMILES comes first, the peptide text is derived from it. [ ]: non-standard residue; d: D form. The star is where a group is joined. Myristoyl = CCCCCCCCCCCCCC(=O)*; 12Ado = NCCCCCCCCCCCC(=O)O; Orn = NCCC[C@H](N)C(=O)O

Assays:
[1] = Hydrophobicity by reversed phase HPLC elution; assay type: physicochemical; settings: % acetonitrile required for elution in reversed phase HPLC, C18 column; rounded to nearest whole number
[2] = tested on: 12 GNB strains; assay type: cell-based; settings: OD measurements, mean of 12 GNB strains
Description: (§1) Bacteria:Escherichia coli strains: 25922 and 35218 (ATCC, Manassas, VA, USA), 14182 (clinical isolate), Ag100 and Ag100A [34] (ΔacrAB) are two K-12 isogenic mutantsand the engineered mutant ML-35p. Additional ESKAPE species tested: Klebsiella pneumoniae strains 1287 and 224 (clinical isolates), Acinetobacter baumannii ATCC strain 19606, Pseudomonas aeruginosa ATCC strains 9027 and 27853. Bacteria were grown in Luria–Bertani (LB) broth (0.5% NaCl, 0.5% yeast extract, 1% tryptone, pH = 7), except for E. coli ML-35p that was grown in tryptic-soy broth.
(§2) Peptide self-assembly was determined by static light scattering measurements as described. Hemolysis was determined by measuring hemoglobin leakage from washed human RBCs, as described. Minimal inhibitory concentration (MIC) was determined using the microdilution assay, as described. Bactericidal kinetics were determined by mixing bacteria with rifampin, OAC, or their combinations, as described. Data were obtained from three independent assays performed in duplicate.

[3] = Peptide self-assembly (critical aggregation concentration) by static light scattering; assay type: physicochemical; settings: light scattering in PBS
Description: as §2

[4] = tested on: E. coli 25922; assay type: cell-based, Escherichia coli; settings: 25922, 24 h
Description: Sensitization to plasma components was assessed by mixing bacteria with serial two-fold OAC dilutions in 80% human plasma (Israel Blood Bank) or plasma from the specified species (Technion preclinical research authority or VetSource), as described. Data were obtained from three independent experiments.
Figure 3 Animal plasma antibacterial activities against E. coli 25922. (a) Dose-dependent reduction of colony forming units (CFU) as determined 24 h after exposure to C14(ω5)OOc10O in human plasma (80% final plasma concentration in PBS). Values represent the mean ± SD obtained from three individual plasma donors (mean inoculum was 1.6 ± 0.8 × 10^6 CFU/mL). (b) Time-kill kinetics determined upon E. coli exposure to 0, 2.5, 5, and 10 µM C14(ω5)OOc10O (from top to bottom, respectively). Values represent the mean ± SD obtained from two individual plasma samples, each subjected to two independent assays. Panels (c–f), respectively, show the OAC’s concentration-dependent activities in plasma samples obtained from pig, cat, sheep, and dog. The three dashed horizontal lines respectively represent the average CFU count of the vehicle control (upper line), the inoculum (middle line), and the limit of detection (lower line), i.e., log10 50 CFU/mL = 1.69. Green stars (*) denote lack of detectable CFU.

[5] = tested on: washed human erythrocytes; assay type: cell-based; settings: red cells of human, 3 h
Description: as §2

[6] = light scattering in PBS; reference peptide; cited from earlier work
From the text: Table 1 Biophysical attributes of relevant lipopeptide analogs. | column: CAC (µM)

[7] = tested on: 12 GNB strains; settings: OD measurements, mean of 12 GNB strains, reference peptide; cited from earlier work
From the text: Table 1 Biophysical attributes of relevant lipopeptide analogs. | column: MIC (µM) / LB ^a Medium

[8] = % acetonitrile required for elution in reversed phase HPLC, C18 column; rounded to nearest whole number; reference peptide; cited from earlier work
From the text: Table 1 Biophysical attributes of relevant lipopeptide analogs. | column: H (%)

[9] = tested on: extremely resistant GNB strains; experiment: Erythromycin MIC in LB medium against GNB; assay type: cell-based; settings: greater than highest tested concentration, read-out: Erythromycin MIC alone
Description: (§3) Bacterial sensitization: Sensitization to antibiotics was determined using the checkerboard method in presence of sub-MIC OAC (2.5, 5, and 10 μM), as described. The synergistic effect of the combinations was expressed in terms of the Sensitization Factor (SF), where SF = (MIC antibiotic alone)/(MIC antibiotic upon combination). Data were obtained from three independent assays performed in duplicate.
(§4) Figure 4 Hydrophobicity dependence of antibiotics potentiation by lipopeptide analogs. Sensitization of GNB to rifampin and erythromycin (upper and lower panel, respectively) was assessed by MIC experiments performed in LB medium, in presence or absence of an OAC analog whose A2 position was gradually shortened (from c10 to c6). Pseudomonas aeruginosa 27853 (Pa, blue), Klebsiella pneumoniae 1287 (Kp, green), Escherichia coli 25922 (Ec, red), and Acinetobacter baumannii 19606 (Ab, black).

[10] = tested on: E. coli strain AG100; experiment: microbe, parasite or virus in culture; assay type: cell-based, Escherichia coli
Description: as §1, §2
(§5) The wild-type E. coli strain AG100 and its isogenic ΔacrAB mutant AG100A were used to determine the MIC of OACs and of two known acrAB-TolC substrates: the AMP LL-37 and the macrolide antibiotic erythromycin that are normally inefficient against GNB.

[11] = tested on: E. coli ΔacrAB mutant AG100A; experiment: microbe, parasite or virus in culture; assay type: cell-based, Escherichia coli
Description: as §1, §2, §5

[12] = tested on: Escherichia coli 25922; experiment: Sensitization to rifampin, checkerboard method; assay type: cell-based; settings: Escherichia coli, 25922, E. coli, LB
Description: as §3, §4

[13] = tested on: Acinetobacter baumannii 19606; experiment: Sensitization to rifampin, checkerboard method; assay type: cell-based; settings: Acinetobacter baumannii, 19606, A. baumannii, LB
Description: as §3, §4

[14] = tested on: Klebsiella pneumoniae; experiment: Sensitization to rifampin, checkerboard method; assay type: cell-based; settings: Klebsiella pneumoniae, K. pneumoniae, LB
Description: as §3, §4

[15] = tested on: Pseudomonas aeruginosa 27853; experiment: Sensitization to rifampin, checkerboard method; assay type: cell-based; settings: Pseudomonas aeruginosa, 27853, P. aeruginosa, LB
Description: as §3, §4

[16] = tested on: P. aeruginosa 27853; experiment: Excisional skin wound infection model, topical treatment; assay type: in vivo, mouse; settings: hypromellose gel 1% (w/v), 4 h treatment, mice n = 3 per group
Description: Animals: All animal studies were performed using male ICR mice (25 ± 2 gr). The Technion Animal Care and Use committee approved all procedures, care, and handling of animals. Ethics approval codes: IL0800519, IL0640421, IL0550618, IL1811217.
For efficacy assessments, three infection models were used including one with topical treatment and two with systemic treatment. • Excisional skin wound infection model: mice were anesthetized by intraperitoneal administration of a mixture of ketamine 100 mg/kg and xylazine 5 mg/kg in PBS and their backs shaved with electric clippers. The following day mice were similarly anesthetized and were administrated (S.C) 0.05 mg/kg buprenorphine (for pain relief). A 5 mm diameter piece of skin was removed from the middle of the shaved back, with sterile biopsy punch resulting in a full-thickness injury. A total of 20 µL of a mid-logarithmic culture, containing 5 × 10^6 CFU P. aeruginosa 27853 were applied on the wound. Then, 15 min after inoculation, about 50 µL of hypromellose gel (prepared as described) containing OAC, antibiotic, or their combination were applied on the skin and covered with a piece of medical tape. As a control, the vehicle (drug-free gel) was similarly applied on the skin. After a treatment period of 4 h, about 8 mm diameter of skin surrounding the infected area was removed, suspended in PBS, homogenized, serially diluted 10-fold, and plated for CFU enumeration. The number of viable bacteria was determined after overnight incubation at 37 °C. The lower limit of detection was 50 CFU/wound. • Thigh infection model (TI): mice were inoculated intramuscularly with 1 × 10^6 CFU/mouse of mid-logarithmic E. coli 25922 and treated subcutaneously 1 and 3 h after inoculation. Mice were sacrificed 24 h after infection, their thighs excised, homogenized, serially diluted 10-fold, and plated for CFU enumeration. The number of viable bacteria was determined after overnight incubation at 37 °C. […] The number of viable bacteria was determined after overnight incubation at 37 °C. […]

[17] = no adjuvant, read-out: Rifampin MIC alone
[18] = with 10 μM C14(ω5)OOc10O, read-out: Rifampin MIC in presence of adjuvant
[19] = with C14(ω5)OOc10O, read-out: Rifampin MIC in presence of adjuvant

SMILES | H, hydrophobicity [1] [%] | MIC, LB medium [2] [µM] | CAC, critical aggregation concentration [3] [µM] | MIC, human plasma [4] [µM] | HC50, concentration causing 50% hemolysis compared to water [5] [µM] | further results
CCCCCCCCCCCCCC(=O)N[C@@H](CCCN)C(=O)N[C@@H](CCCN)C(=O)NCCCCCCCCCC(=O)N[C@@H](CCCN)C(N)=O [C14OOc10O] | 53 | 12.5 to 25 | 45 ± 14 | 10 to 20 | 28 ± 2 | –
CCCCCCCCCCCCCC(=O)N[C@@H](CCCCN)C(=O)N[C@@H](CCCCN)C(=O)NCCCCCCCCCCCC(=O)N[C@@H](CCCCN)C(N)=O [C14KKc12K] (Myristoyl-KK[12Ado]K-NH2) | – | – | – | >20 | 12 ± 1 | CAC, critical aggregation concentration [6]: 20 ± 5 µM; MIC, LB medium [7]: 3 to 6 µM; H, hydrophobicity [8]: 55%
CC[C@H]1OC(=O)[C@H](C)[C@@H](O[C@H]2C[C@@](C)(OC)[C@@H](O)[C@H](C)O2)[C@H](C)[C@@H](O[C@@H]2O[C@H](C)C[C@H](N(C)C)[C@H]2O)[C@](C)(O)C[C@@H](C)C(=O)[C@H](C)[C@@H](O)[C@]1(C)O [Erythromycin, reference compound] | – | – | – | – | – | MIC [9]: > 512 µg/mL; MIC ([10]; Escherichia coli, wild-type E. coli AG100): 174 µM; MIC ([11]; Escherichia coli, read-out: MIC, Ag100A): 10.9 µM
CCCCC=CCCCCCCCC(=O)N[C@@H](CCCN)C(=O)N[C@@H](CCCN)C(=O)NCCCCCC(=O)N[C@@H](CCCN)C(N)=O [C14(ω5)OOc6O] | 47 | >50 | >100 | 5 (≈ 3.4 µg/mL) | >100 | –
CO[C@H]1/C=C/O[C@@]2(C)Oc3c(C)c(O)c4c(O)c(c(/C=N/N5CCN(C)CC5)c(O)c4c3C2=O)NC(=O)/C(C)=C\C=C\[C@H](C)[C@H](O)[C@@H](C)[C@@H](O)[C@@H](C)[C@H](OC(C)=O)[C@@H]1C [rifampin] | – | – | – | – | – | MIC [12, 17]: 8 µg/mL; MIC [12, 18]: 0.00025 µg/mL; MIC [13, 17]: 2 µg/mL; MIC [13, 19]: 0.0005 µg/mL; MIC [14, 17]: 32 µg/mL; MIC [14, 19]: 0.0005 µg/mL; MIC [15, 17]: 32 µg/mL; MIC [15, 18]: 0.001 µg/mL; Reduction of CFU count [16]: 1.7 log10 units
CCCCC=CCCCCCCCC(=O)N[C@@H](CCCN)C(=O)N[C@@H](CCCN)C(=O)NCCCCCCCC(=O)N[C@@H](CCCN)C(N)=O [C14(ω5)OOc8O] | 48 | >50 | >100 | 2.5 to 5 | >100 | –
NCCC[C@H](NC(=O)CCCCCCCCCCCNC(=O)[C@H](CCCN)NC(=O)[C@@H](N)CCCN)C(N)=O [OOc12O] (H-[Orn][Orn][12Ado][Orn]-NH2) | 24 | >50 | >100 | >20 | >100 | –
CCCCCCCCCCCCCC(=O)N[C@@H](CCCN)C(=O)N[C@@H](CCCN)C(=O)NCCCCCCCCCCCC(=O)N[C@@H](CCCN)C(N)=O [C14OOc12O] (Myristoyl-[Orn][Orn][12Ado][Orn]-NH2) | 55 | 3 to 6 | 15 ± 1 | >20 | 14 ± 4 | MIC ([10]; strain AG100): 3.1 µM; MIC, Ag100A ([11]; isogenic ΔacrAB mutant AG100A): 3.1 µM
